Assay results: patent US10111428B2, “Nematocide containing lactonic ring and preparation method and application thereof” (priority 2015, dated 2018)
Values after ≈ are worked out from the molar mass of the structure shown. Read-outs that look alike come from different tables or passages of the source.

Experiments:
[1] = tested on: Nematode eggs; assay: Plant pathogenic nematode inhibition test by dipping: nematode egg hatch inhibition (NY/T 1154.5-2006); assay type: in vivo
Protocol: A plant pathogenic nematode inhibition test is conducted by dipping with the compounds in Table 1; and by referring to NY/T 1154.5-2006 (Part 5: Dipping Test for Insecticide Ovicidal Activity), the nematode egg hatch inhibition activity of the compounds is tested, as shown in Table 2: […]

[2] = tested on: Nematode J2; assay: Plant pathogenic nematode inhibition test by dipping: second-stage juveniles; assay type: in vivo
[3] = tested on: Edaphon; assay: Edaphon toxicity test (Test Guidelines on Environmental Safety Assessment for Chemical Pesticides)
Protocol: (§1) According to the earthworm and edaphon toxicity test procedures as prescribed in the Test Guidelines on Environmental Safety Assessment for Chemical Pesticides, earthworm and edaphon toxicity tests are conducted on compounds 1 to 60 from Table 1. The simulative usual dose of pesticide in the edaphon test is 40 ppm.

[4] = tested on: Earthworm; assay: Earthworm toxicity test (Test Guidelines on Environmental Safety Assessment for Chemical Pesticides); assay type: in vivo; settings: cell adds 'low toxicity'
Protocol: as §1

[5] = 15 d, 100 times of usual dose (simulative usual dose 40 ppm), cell adds 'low toxicity'
[6] = Test object: nematode eggs, dipping
[7] = Test object: nematode J2 (second-stage juveniles), dipping

Row | SMILES | LC50 ([1]; in vivo) [mg/L] | LC50 ([2]; in vivo) [mg/L] | Edaphon Toxicity (15 d) (Inhibition ratio when added amount is 100 times of usual dose) [3, 5] | Earthworm Toxicity LC50 (14 d) [4] | LC50 [1, 6] [mg/L] | LC50 [2, 7] [mg/L] | Edaphon Toxicity (15 d) (Inhibition ratio when added amount is 100 times of usual dose) [3]
1 | O=C1CC(C(=O)OCCC=C(F)F)C(c2ccccc2)O1 (stereo not shown) [Compound 1] | 11.81 (≈ 39.9 µM) | 12.24 (≈ 41.3 µM) | <50%, low toxicity | >10, low toxicity mg/L | – | – | –
2 | Cc1ccccc1C1OC(=O)CC1C(=O)OCCC=C(F)F (stereo not shown) [Compound 2] | 9.81 (≈ 31.6 µM) | 10.14 (≈ 32.7 µM) | <50%, low toxicity | >10, low toxicity mg/L | – | – | –
3 | Cc1ccc(C2OC(=O)CC2C(=O)OCCC=C(F)F)cc1 (stereo not shown) [Compound 3] | – | – | <50%, low toxicity | >10, low toxicity mg/L | 10.01 (≈ 32.3 µM) | 10.23 (≈ 33 µM) | –
4 | CCc1ccc(C2OC(=O)CC2C(=O)OCCC=C(F)F)cc1 (stereo not shown) [Compound 4] | 10.25 (≈ 31.6 µM) | 10.24 (≈ 31.6 µM) | <50%, low toxicity | >10, low toxicity mg/L | – | – | –
5 | CCCc1ccc(C2OC(=O)CC2C(=O)OCCC(F)=C(F)F)cc1 (stereo not shown) [Compound 5] | 8.02 (≈ 22.5 µM) | 9.777 (≈ 27.4 µM) | <50%, low toxicity | >10, low toxicity mg/L | – | – | –
6 | CCCCc1ccc(C2OC(=O)CC2C(=O)OCCC(F)=C(F)F)cc1 (stereo not shown) [Compound 6] | 11.81 (≈ 31.9 µM) | 13.45 (≈ 36.3 µM) | <50%, low toxicity | >10, low toxicity mg/L | – | – | –
7 | O=C1CC(C(=O)OCCC(F)=C(F)F)C(c2ccccc2Cl)O1 (stereo not shown) [Compound 7] | – | – | <50%, low toxicity | >10, low toxicity mg/L | 12.81 (≈ 36.7 µM) | 13.25 (≈ 38 µM) | –
8 | O=C1CC(C(=O)OCCC(F)=C(F)F)C(c2cccc(Cl)c2Cl)O1 (stereo not shown) [Compound 8] | 12.81 (≈ 33.4 µM) | 13.14 (≈ 34.3 µM) | <50%, low toxicity | >10, low toxicity mg/L | – | – | –
9 | O=C1CC(C(=O)OCCC(F)=C(F)F)C(c2ccc(Cl)cc2Cl)O1 (stereo not shown) [Compound 9] | 10.36 (≈ 27 µM) | 13.14 (≈ 34.3 µM) | <50%, low toxicity | >10, low toxicity mg/L | – | – | –
10 | O=C1CC(C(=O)OCCC(F)=C(F)F)C(c2cc(Cl)ccc2Cl)O1 (stereo not shown) [Compound 10] | 10.80 (≈ 28.2 µM) | 13.30 (≈ 34.7 µM) | <50%, low toxicity | >10, low toxicity mg/L | – | – | –
11 | O=C1CC(C(=O)OCCC(F)=C(F)F)C(c2c(Cl)cccc2Cl)O1 (stereo not shown) [Compound 11] | 13.30 (≈ 34.7 µM) | 14.95 (≈ 39 µM) | <50%, low toxicity | >10, low toxicity mg/L | – | – | –
12 | O=C1CC(C(=O)OCCC(F)=C(F)F)C(c2cc(Cl)cc(Cl)c2Cl)O1 (stereo not shown) [Compound 12] | 12.30 (≈ 29.5 µM) | 13.35 (≈ 32 µM) | <50%, low toxicity | >10, low toxicity mg/L | – | – | –
13 | O=C1CC(C(=O)OCCC(F)=C(F)F)C(c2cc(Cl)cc(Cl)c2)O1 (stereo not shown) [Compound 13] | 15.46 (≈ 40.3 µM) | 16.25 (≈ 42.4 µM) | <50%, low toxicity | >10, low toxicity mg/L | – | – | –
14 | O=C1CC(C(=O)OCCC(F)=C(F)F)C(c2cccc(Cl)c2)O1 (stereo not shown) [Compound 14] | 12.10 (≈ 34.7 µM) | 13.01 (≈ 37.3 µM) | <50%, low toxicity | >10, low toxicity mg/L | – | – | –
15 | O=C1CC(C(=O)OCCC(F)=C(F)F)C(c2ccc(Cl)cc2)O1 (stereo not shown) [Compound 15] | 11.88 (≈ 34.1 µM) | 12.69 (≈ 36.4 µM) | <50%, low toxicity | >10, low toxicity mg/L | – | – | –
16 | O=C1CC(C(=O)OCCC(F)=C(F)F)C(c2c(F)cccc2Cl)O1 (stereo not shown) [Compound 16] | 10.91 (≈ 29.8 µM) | 12.25 (≈ 33.4 µM) | <50%, low toxicity | >10, low toxicity mg/L | – | – | –
17 | O=C1CC(C(=O)OCCC(F)=C(F)F)C(c2cc(Br)cc(Br)c2)O1 (stereo not shown) [Compound 18] | 10.23 (≈ 21.7 µM) | 12.47 (≈ 26.4 µM) | <50%, low toxicity | >10, low toxicity mg/L | – | – | –
18 | O=C1CC(C(=O)OCCC(F)=C(F)F)C(c2ccccc2F)O1 (stereo not shown) [Compound 19] | 15.21 (≈ 45.8 µM) | 17.24 (≈ 51.9 µM) | <50%, low toxicity | >10, low toxicity mg/L | – | – | –
19 | O=C1CC(C(=O)OCCC(F)=C(F)F)C(c2ccc(F)cc2)O1 (stereo not shown) [Compound 20] | 10.143 (≈ 30.5 µM) | 12.532 (≈ 37.7 µM) | <50%, low toxicity | >10, low toxicity mg/L | – | – | –
20 | O=C1CC(C(=O)OCCC(F)=C(F)F)C(c2ccc(Cl)cc2F)O1 (stereo not shown) [Compound 21] | 11.98 (≈ 32.7 µM) | 13.74 (≈ 37.5 µM) | <50%, low toxicity | >10, low toxicity mg/L | – | – | –
21 | O=C1CC(C(=O)OCCC(F)=C(F)F)C(c2cc(F)cc(Br)c2)O1 (stereo not shown) [Compound 22] | 9.57 (≈ 23.3 µM) | 10.85 (≈ 26.4 µM) | <50%, low toxicity | >10, low toxicity mg/L | – | – | –
22 | O=C1CC(C(=O)OCCC(F)=C(F)F)C(c2ccc(F)c(Cl)c2)O1 (stereo not shown) [Compound 23] | 10.23 (≈ 27.9 µM) | 11.24 (≈ 30.7 µM) | <50%, low toxicity | >10, low toxicity mg/L | – | – | –
23 | O=C1CC(C(=O)OCCC(F)=C(F)F)C(c2cc(F)cc(Cl)c2)O1 (stereo not shown) [Compound 24] | – | – | <50%, low toxicity | >10, low toxicity mg/L | 10.91 (≈ 29.8 µM) | 12.24 (≈ 33.4 µM) | –
24 | O=C1CC(C(=O)OCCC(F)=C(F)F)C(c2ccc(Br)cc2F)O1 (stereo not shown) [Compound 25] | – | – | <50%, low toxicity | >10, low toxicity mg/L | 13.91 (≈ 33.8 µM) | 15.74 (≈ 38.3 µM) | –
25 | O=C1CC(C(=O)OCCC(F)=C(F)F)C(c2cccc(F)c2)O1 (stereo not shown) [Compound 27] | – | – | – | >10, low toxicity mg/L | 7.85 (≈ 23.6 µM) | 8.91 (≈ 26.8 µM) | <50%, low toxicity
26 | O=C1CC(C(=O)OCCC(F)=C(F)F)C(c2cc(F)ccc2F)O1 (stereo not shown) [Compound 28] | 13.23 (≈ 37.8 µM) | 15.07 (≈ 43 µM) | <50%, low toxicity | >10, low toxicity mg/L | – | – | –
27 | O=C1CC(C(=O)OCCC(F)=C(F)F)C(c2c(F)c(F)c(F)c(F)c2F)O1 (stereo not shown) [Compound 29] | 12.24 (≈ 30.3 µM) | 13.86 (≈ 34.3 µM) | <50%, low toxicity | >10, low toxicity mg/L | – | – | –
28 | O=C1CC(C(=O)OCCC(F)=C(F)F)C(c2cc(F)c(F)c(F)c2)O1 (stereo not shown) [Compound 30] | 9.73 (≈ 26.4 µM) | 10.96 (≈ 29.8 µM) | <50%, low toxicity | >10, low toxicity mg/L | – | – | –
